Laboratory results from patent US4760053A, “Combination therapy for selected sex steroid dependent cancers” (priority 1985, dated 1988).

How the values were obtained:
[1] = tested on: advanced breast cancer; conditions: cited from earlier work
[2] = tested on: serum testosterone; experiment: LHRH agonist-induced serum testosterone in the dog; format: in vivo; conditions: dogs; for prevention of the rise in serum testosterone during the first days of treatment with the peptide: given per os three times daily together with 50 μg LHRH-A daily (aminoglutethimide group plus hydrocortisone)
Method: Eighteen mongrel dogs weighing between 20-30 kg were randomly divided into three groups. The animals were housed one per cage and fed Purina Dog Chow and tap water ad libitum.
The animals of group 1 were injected daily (at 0700 h) with 50 μg of the LHRH agonist [D-Trp^6, des-Gly-NH2^10 ]LHRH ethylamide (LHRH-A). In group 2, the animals were also injected daily with 50 μg of LHRH-A and took in addition 200 mg of ketoconazole per os at 0700 h, 1500 h and 2300 h. The animals of group 3 received daily 50 μg of LHRH-A and 125 mg of aminoglutethimide per os at 0700 h, 1500 h, 2300 h plus 10 mg of hydrocortisone twice daily.
Blood samples were collected at 0700 h, 0900 h, 1100 h and 1500 h one day before treatment and every day during the treatment. Plasma was extracted with diethyl ether and testosterone was separated on LH-20 columns before RIA measurements.

[3] = tested on: testosterone levels; conditions: rodents, in combination with chronic administration of Leuprolide; cited from earlier work
[4] = tested on: MCF7 human breast tumor cells; conditions: inhibitory activity antagonized by estradiol; cited from earlier work

With `CC/C(=C(\c1ccccc1)c1ccc(OCCN(C)C)cc1)c1ccccc1` [Tamoxifen, (Z)-2-[4-(1,2-diphenyl-1-butenyl)phenoxy]-N,N-dimethylethanamine] as the molecule, how does the “remission of advanced breast cancer, share of patients treated” value ([1]; Tamoxifen alone) read?
The value was “about 30%”.

And the “objective remission of breast cancer” value ([1]; combined use with the LH-RH agonist Buserelin)?
The value was 35%.

What does the source list for `CCNC(=O)[C@@H]1CCCN1C(=O)[C@H](CCCNC(=N)N)NC(=O)[C@H](CC(C)C)NC(=O)[C@@H](Cc1c[nH]c2ccccc12)NC(=O)[C@H](Cc1ccc(O)cc1)NC(=O)[C@H](CO)NC(=O)[C@H](Cc1c[nH]c2ccccc12)NC(=O)[C@H](Cc1c[nH]cn1)NC(=O)[C@@H]1CCC(=O)N1` [[D-Trp^6 des-Gly-NH2^10]LHRH ethylamide, [D-Trp^6, des-Gly-NH2^10]LHRH ethylamide]?
level of serum testosterone on day 19 ([2]; daily injection of 50 μg, day 19): near-castration levels; increase in serum testosterone ([2]; daily injection of 50 μg, one to six days after start of treatment): approximately 500 % above control

For `CCC1(c2ccc(N)cc2)CCC(=O)NC1=O` (centres unmarked) [aminoglutethimide, 3-(4-aminophenyl)-3-ethyl-2,6-piperidinedione], which “prevention of the rise in serum testosterone during the first days of treatment with the peptide” value [2] is on record?
The value was “almost completely prevented”.

Which “prevention of the rise in serum testosterone during the first days of treatment with the peptide” value [2] does the source give for `CC(=O)N1CCN(c2ccc(OCC3COC(Cn4ccnc4)(c4ccc(Cl)cc4Cl)O3)cc2)CC1` (centres unmarked) [ketoconazole] here?
Its value is “almost completely prevented”.

What about the “basal and Leuprolide stimulated testosterone levels” value [3] of the same molecule?
The value was “decreased”.

Which “inhibition of MCF7 human breast tumor cells” value [4] does the source give for `CC[C@H](c1cccc(O)c1)[C@@H](CC)c1cccc(O)c1` [meso-3,4-bis(3'-hydroxyphenyl)hexane] here?
The value was “inhibits”.
